According to patent publication US20170166870A1, “HUMAN HEPATIC 3D CO-CULTURE MODEL AND USES THEREOF” (Vrije Universiteit Brussel, priority 2014, published 2017):
Like-named read-outs stand apart in the source and are kept apart here.

What was measured:
3D HepaRG/HSC co-culture [1] = test: Single and repeated exposure, gene expression of HSC activation markers; format: cell-based, human; conditions: for HSC activation (up-regulation of activation markers, mRNA): serum-free medium
Description: (§1) Single and repeated exposure. For the single and repeated compound exposure cell spheroids (3D HepaRG/HSC, 3D HepaRG and 3D HSC) were exposed respectively on day 20 for 24 h or every second day from day 8 to day 21 in serum-free medium with no additional solvent. Cells were exposed to a range of 8 concentrations between 0.5 and 80 mM for APAP single-dose, 0.125 and 40 mM for APAP repeated-dose, 0.3 and 500 μM Allyl Alcohol (AA, Sigma-Aldrich), 1.9 and 1000 μM Methotrexate (MTX, Pfizer, NY, USA). For the recovery assay, on day 21, cells were washed using serum-free medium and kept for 3 extra days.
For the cell culture samples, total RNA from 4-6 pooled spheroids was extracted from cells using the RNeasy Micro Kit (Qiagen, Venlo, Limburg, Netherlands). In the mouse assays, sorted HSC from different mice were lysed separately. Total RNA from tissue cultured cells was extracted using ReliaPrep RNA Cell Miniprep System (Promega).
Reverse-transcription using the Revert Aid Kit (ThermoFisher Scientific, Waltham, Massachusetts, USA) allowed conversion of RNA to cDNA. The RT reaction was performed at 25° C. for ten minutes followed by 30 minutes at 50° C. For quantitative real-time polymerase chain reaction (qPCR), GoTaq QPCR Master Mix with BRYTE green (Promega) was used, subjected to qPCR in a 7500 real time PCR system and analysed using System SDS software v2.0.5 (Applied Biosystems, Waltham, Mass., USA), using GAPDH for normalisation. Reliability of GAPDH as house-keeping gene was determined using Normfinder (Anderson et al., 2004). Fold change differences between samples were determined using the comparative Ct (δδCt) method. The expression level of different targets, relative to GAPDH (δCt) and relative to the calibrator, was given by 2^−δδCt.

3D HepaRG/HSC co-culture [2] = test: Single and repeated exposure, cell viability (% ATP), serum-free medium; format: cell-based, human
Description: Culture medium. Day 0 cells were resuspended in HepaRG thawing medium and from day 1 to 21 cells were kept in the HepaRG culture medium 0% DMSO, until day 8. For the repeated versus single compound exposure assays, on day 8, the HepaRG culture medium 0% DMSO was replaced by the Serum-free HepaRG maintenance medium described in Klein et. al. 2013 (HepaRG Induction/Toxicity medium, DMSO 0.5% (v/v), 2 μg/ml of epidermal growth factor and 10 μg/ml of hepatocyte growth factor) and kept in this medium until the end of culture.
as §1
Cell viability assay was performed by measuring ATP production upon individual spheroid exposure to the different concentrations of the test compound. Cell spheroids were lysed individually for viability analysis using the Cell titer Glo kit (Promega) following the instructions of the manufacturer. Luminescence values were converted into percentage of ATP by comparison with controls and converted into dose-response curves using Prism 5 software.

3D HepaRG/HSC co-culture [3] = test: Single and repeated exposure, procollagen in culture supernatant; format: cell-based, human; conditions: repeated exposure, day 14; not observed at day 21
Source text: (§2) FIG. 10: APAP and reference fibrotic compounds in single- and repeated-exposure of the 3D HepaRG/HSC co-culture. (A, C and E) cell viability, represented by % ATP and (B, D and F) gene expression. Error bars represent the standard deviation between independent assays (N=2) each point represents the pool of 5-6 spheroids. (D, F) Graph inserts represent the second repeat of the assay. Due to the variation between assays values could not be averaged together. Each point represents the pool of 5-6 spheroids. (G-H) Fibrosis read-outs at the protein level. (G) Procollagen measurements in culture supernatant upon single and repeated compound exposure (day 14 and 21) to 3D HepaRG/HSCs. (H) Procollagen measurements in culture supernatant upon 24 h incubation with the reference pro-fibrotic compounds of 3D HepaRG and 3D HSCmono-cultures.
(§3) Samples for pro-collagen measurement were five times concentrated using 10 kD Vivaspin 500 ultrafiltration columns (VWR, Radnor, Pa.), the resulting supernatant was analysed for the presence of Type I C-Peptide using the TAKARA (Chanteloup-en-Brie, France) kit.
(§4) Single and repeated exposure. For the single and repeated compound exposure cell spheroids (3D HepaRG/HSC, 3D HepaRG and 3D HSC) were exposed respectively on day 20 for 24 h or every second day from day 8 to day 21 in serum-free medium with no additional solvent. […]

[4] = system: 3D HepaRG and 3D HSC mono-cultures; test: Procollagen in culture supernatant of mono-cultures, reference pro-fibrotic compounds; format: cell-based, human; conditions: 3D mono-cultures, 24 h incubation
Source text: as §2, §3, §4

3D HepaRG/HSC co-culture [5] = test: Exposure to pro-fibrotic factors, gene expression; format: cell-based, human
Description: From day 14 to day 21, 3D HepaRG/HSC spheroids were exposed to a solution of 100 ng/ml Lipopolysaccharide (LPS, Sigma) in culture medium, refreshed every second day up to day 21. Incubation with the Transforming growth factor-β1 (TGF-β1, R&D systems inc., Minneapolis, Minn., USA) was performed on day 19 for 48 h at a concentration of 10 ng/ml in HepaRG Induction/Toxicity medium. On day 21, cells were lysed and gene expression was analyzed upon RNA extraction.
(§5) Total RNA was extracted from cells using the ReliaPrep RNA Cell Miniprep System (Promega, Madison, Wis.). Reverse-transcription using the Revert Aid Kit (ThermoFisher Scientific, St. Leon-Rot, Germany) allowed conversion of RNA to cDNA. The RT reaction was performed at 25° C. for ten minutes followed by 30 minutes at 50° C. For quantitative real-time polymerase chain reaction (qPCR), GoTaq QPCR Master Mix with BRYTE green (Promega, Madison, Wis.) was used, subjected to qPCR in a 7500 real time PCR system and analysed using System SDS software v2.0.5 (Applied Biosystems), using GAPDH for normalisation.

3D HepaRG/HSC co-culture [6] = test: APAP toxicity assay, cell viability by ATP (Cell titer Glo); format: cell-based, human; conditions: 2.5 mM VPA with APAP
Description: APAP toxicity assay was performed in 3D HepaRG/co-culture as well as in 3D HepaRG monoculture. […] For some experiments the culture medium was supplemented with 2.5 mM valproic acid (VPA sodium salt, Sigma-Aldrich) or with cytokine mixture (Raicevic et al.,2012)-interleukin (IL)-1β 25 ng/mL (Peprotech, Rocky Hill, N.J., USA), interferon (IFN)-γ 10^3 U/mL, tumor necrosis factor (TNF)-a 50 ng/mL, and IFN-α 3·10^3 U/mL (all from Prospec, Inc., East Brunswick, N.J., USA). For the recovery assay, at the end of APAP incubation, cells were washed using HepaRG culture 0% DMSO medium and kept in the same medium for 3 more days.
(§6) At the end of the incubation period, 5 spheroids per condition were pooled and lysed for RNA analyses, while the remaining spheroids per condition were lysed individually for viability analysis using the Cell titer Glo kit (Promega) for ATP measurements following the instructions of the manufacturer.

3D HepaRG/HSC co-culture [7] = test: mRNA expression of HSC activation markers (qPCR) after APAP incubation; format: cell-based, human; conditions: 2.5 mM VPA, highest APAP concentrations
Description: APAP toxicity assay was performed in 3D HepaRG/co-culture as well as in 3D HepaRG monoculture. For 24 h, starting at day 20, cells were exposed to a range of APAP concentrations between 0.5 and 80 mM, keeping cells with the solvent (0.1% DMSO) as a control. For some experiments the culture medium was supplemented with 2.5 mM valproic acid (VPA sodium salt, Sigma-Aldrich) or with cytokine mixture (Raicevic et al.,2012)-interleukin (IL)-1β 25 ng/mL (Peprotech, Rocky Hill, N.J., USA), interferon (IFN)-γ 10^3 U/mL, tumor necrosis factor (TNF)-a 50 ng/mL, and IFN-α 3·10^3 U/mL (all from Prospec, Inc., East Brunswick, N.J., USA). For the recovery assay, at the end of APAP incubation, cells were washed using HepaRG culture 0% DMSO medium and kept in the same medium for 3 more days.
as §6, §5

[8] = system: 3D mouse hepatocyte/HSC co-culture (1Hep:2HSC); test: LPS stimulation of 3D mouse hepatic co-cultures, aSMA and Col1a1 expression; format: cell-based; conditions: 6 days LPS treatment, day 9; 1Hep:2HSC ratio
Source text: FIG. 1: Screen of hepatocyte:hepatic stellate cell ratios in 3D mouse cultures. Figure represents the HSC activation markers (A, B) and Hepatocyte markers (C) measured in the different 3D mouse hepatic co-cultures. A—basal gene expression of fibrotic markers (aSMA and Col1a1) on day 9 of culture. B—Fold increase of aSMA and Col1a1 on day 9 upon 6 days treatment with the pro-fibrotic factor LPS. Horizontal line corresponds to non-treated 3D co-cultures for each case. C—over-time gene expression of albumin (a) and CYP3A11 (b) in the 3D co-cultures where better results were obtained previously (2hep:1HSC and 1Hep:2HSC). Comparisons between groups were analyzed for statistical significance by one-way ANOVA followed by Tukey. *** p<0.001; ** p<0.01; * p<0.05. […]
Total RNA was extracted from cells using the ReliaPrep RNA Cell Miniprep System (Promega, Madison, Wis.). […] For quantitative real-time polymerase chain reaction (qPCR), GoTaq QPCR Master Mix with BRYTE green (Promega, Madison, Wis.) was used, subjected to qPCR in a 7500 real time PCR system and analysed using System SDS software v2.0.5 (Applied Biosystems), using GAPDH for normalisation. Reliability of GAPDH as house-keeping gene was determined using Normfinder (Andersen, Jensen et al. 2004) to produce the ΔCT values. […]

Molecule: C=CCO [Allyl Alcohol]
- HSC activation (up-regulation of activation markers, mRNA) (3D HepaRG/HSC co-culture [1]; repeated exposure): increase of the HSC activation markers at mRNA levels
- HSC activation (up-regulation of activation markers, mRNA) (3D HepaRG/HSC co-culture [1]; single exposure 24 h): increase of the HSC activation markers at mRNA levels
- cell viability dose-response (3D HepaRG/HSC co-culture [2]; repeated exposure): disappeared upon repeated exposure
- cell viability (3D HepaRG/HSC co-culture [2]; single exposure): dose-response observed at the single exposure
- collagen secretion (3D HepaRG/HSC co-culture [3]): high collagen secretion at day 14
- collagen secretion [4]: no collagen secretion is detected

Molecule: TGFβ: Transforming growth factor-β1, known pro-fibrogenic factor
- activation markers (Acta2, Col1a1, Col3a1, Loxl2) expression (3D HepaRG/HSC co-culture [5]; 10 ng/ml TGFβ, 48 h, day 21): acted on the activation markers

Molecule: CCCC(CCC)C(=O)O [VPA, valproic acid]
- effect on APAP toxicity (cell viability) (3D HepaRG/HSC co-culture [6]): did not affect APAP toxicity
- effect on APAP-induced HSC markers (3D HepaRG/HSC co-culture [7]): lower up-regulation of the HSC markers

Molecule: CN(Cc1cnc2nc(N)nc(N)c2n1)c1ccc(C(=O)N[C@@H](CCC(=O)O)C(=O)O)cc1 [MTX, Methotrexate]
- recovery of HSC 3 days after compound washout (3D HepaRG/HSC co-culture [1]; repeated exposure 63 μM): observed
- HSC activation (up-regulation of activation markers, mRNA) (3D HepaRG/HSC co-culture [1]; repeated exposure): dramatically compensated
- HSC activation (up-regulation of activation markers, mRNA) (3D HepaRG/HSC co-culture [1]; single exposure 24 h): no longer observed
- cell viability (3D HepaRG/HSC co-culture [2]): does not seem to affect cell viability at any of the tested concentrations
- percentage of ATP production (3D HepaRG/HSC co-culture [2]; repeated exposure, lowest concentration): less than 20%
- collagen secretion (3D HepaRG/HSC co-culture [3]): high collagen secretion at day 14
- collagen secretion [4]: no collagen secretion is detected

Molecule: Lipopolysaccharide [LPS]
- activation response (aSMA, Col1a1) [8]: increased aSMA and Col1a1
- survivor markers (IL6, MMP1, CCL2, TNFα, IL1β) expression (3D HepaRG/HSC co-culture [5]; 100 ng/ml LPS, 6 days): induced an up-regulation of the survivor markers
